Experimental data taken from article PMC8162404, “Proteomimetic surface fragments distinguish targets by function” (Chemical Science, 2020).

What follows are molecules tested against T1, CaM (Bos taurus, UniProt P62157) (assay: Pull-down assay with immobilized protein and LSM libraries). Conditions: H12 library; 1:2 stoichiometry assumed; read-out: Surface mapping KD (apparent).
T1 construct: made in house; host or cells: E. coli BL21 (DE3)
Format: binding, bovine
Procedure: Pull-down assays with immobilized test proteins and foldameric LSM libraries were carried out. Proteins were equilibrated with LSM probes, and equilibrium bound fractions (FB) were determined from the unbound fractions measured by HPLC-MS methods. Hits were corrected with background binding of the resin. The protocol allowed all binding events to equilibrate irrespective of affinity, specificity, and binding kinetics. This was essential to judge overall druggability and promiscuity. Importantly, the concentration of protein and the total concentration of foldameric LSMs were equimolar, which minimized competition between the probes. This experimental setup approximated independent binding of individual library members. Results were visualized as heat maps of dissociation constants (Fig. 3).
Pull-down assay and data analysis
Pull-down assay. LSM sublibraries were screened separately as previously described.(2) Experiments were performed in the following buffers: (i) 20 mM pH 7.4 HEPES, 150 mM NaCl, 5 mM CaCl2 for CaM; (ii) 50 mM pH 7.4 HEPES, 150 mM NaCl, 1 mM TCEP, 1 mM CaCl2 for S100 proteins; (iii) 20 mM pH 7.4 HEPES, 150 mM NaCl, 1 mM TCEP for Gal-1 and (iv) 20 mM pH 7.4 HEPES, 150 mM NaCl for RecQ-WH. Assays were performed in paper filter spin cups (Thermo Scientific) with sample volumes of 100 µl. Hexahistidine-tagged proteins were immobilized on previously washed Co-NTA resin (TALON, Takara Bio USA, Inc., […]
LSM sublibrary was added, in which each of the 64 library members were used at a concentration of 1 µM. Samples were incubated at room temperature for 30 min with shaking at 100 rpm. Then, samples were centrifuged at 1000 rpm for 2 min and washed with 100 µl pull-down buffer to remove unbound compounds.
The control experiments were performed using the same compounds and the resin but without the immobilized protein. In case of competitive assays, competitor peptides were added to LSM sublibrary samples in 200 µM final concentration. In the case of Gal-1, lactose (competitor) was used in a concentration of 10 mM. Experiments were performed at least twice. Mean […]
LC-MS methods and parameters. HPLC/ESI-MS analysis was used to characterize the samples from the pull-down assay. LC-MS analysis was performed with a Thermo Scientific Dionex UltiMate 3000 HPLC system interfaced to an LTQ ion trap mass spectrometer (Thermo Electron Corp., San Jose, CA, USA). Samples were injected onto an Aeris Widepore XB-C18 (250 x 4.6 mm) analytical HPLC column using gradient elution 5-80 % solution B during 25 minutes. For pull-down samples, eluent composition was 0.1% acetic acid in distilled water (Solution A) and 0.1% acetic acid in acetonitrile (solution B). Mass spectra were acquired in full scan mode from 200 to 2000 m/z range. For overlapping peaks, selective reaction monitoring (SRM) was […]
MS data analysis. Thermo Xcalibur 2.2 software was used for peak identification and integration. The majority of the foldameric fragments could be resolved independently via HPLC-MS/MS measurements based on molecular weight, MS fragmentation pattern and retention time. Peaks of some foldamers with β3-hIle or β3-hLeu in position R2 could not be resolved, these were integrated and averaged. In the processing method, each sample component was associated to a chromatographic peak based on previously identified mass (m/z) and retention time (ref (2) and Table S7-10). Using ICIS peak detection algorithm, the general detection and integration criteria were: smoothing points: 5, baseline window: 80, area noise factor: 5, peak noise factor: 10. Using these processing setups, all raw data files were reprocessed together and analyzed. Errors in peak identification during the automatic processing were corrected manually.
Calculation of the discussed parameters
1. Bound fractions (FB.) were calculated from the HPLC-MS intensity loss of the LSM probes compared to the control where no protein was immobilized to the resin: […]
For `NC(=O)[C@H]1CCC[C@@H]1NC(=O)[C@H]1CCC[C@@H]1NC(=O)C[C@H](CO)NC(=O)[C@H]1CCC[C@@H]1NC(=O)[C@H]1CCC[C@@H]1NC(=O)C[C@H](CO)NC(=O)[C@H]1CCC[C@@H]1NC(=O)[C@H]1CCC[C@@H]1N` [H12 SS], the Kd was 480 µM.
Molecule `C[C@@H](O)[C@@H](CC(=O)N[C@H]1CCC[C@@H]1C(=O)N[C@H]1CCC[C@@H]1C(=O)N[C@H](CC(=O)N[C@H]1CCC[C@@H]1C(=O)N[C@H]1CCC[C@@H]1C(N)=O)Cc1ccc(O)cc1)NC(=O)[C@H]1CCC[C@@H]1NC(=O)[C@H]1CCC[C@@H]1N` [H12 TY] has a Kd of 132 µM.
`NC(=O)C[C@@H](CC(=O)N[C@H]1CCC[C@@H]1C(=O)N[C@H]1CCC[C@@H]1C(=O)N[C@H](CC(=O)N[C@H]1CCC[C@@H]1C(=O)N[C@H]1CCC[C@@H]1C(N)=O)Cc1ccc(O)cc1)NC(=O)[C@H]1CCC[C@@H]1NC(=O)[C@H]1CCC[C@@H]1N` [H12 NY] was tested, and the Kd was 364 µM.
`CSCC[C@@H](CC(=O)N[C@H]1CCC[C@@H]1C(=O)N[C@H]1CCC[C@@H]1C(N)=O)NC(=O)[C@H]1CCC[C@@H]1NC(=O)[C@H]1CCC[C@@H]1NC(=O)C[C@H](CO)NC(=O)[C@H]1CCC[C@@H]1NC(=O)[C@H]1CCC[C@@H]1N` [H12 SM] showed a Kd of 340 µM.
In the case of `NC(=O)[C@H]1CCC[C@@H]1NC(=O)[C@H]1CCC[C@@H]1NC(=O)C[C@H](Cc1ccc(O)cc1)NC(=O)[C@H]1CCC[C@@H]1NC(=O)[C@H]1CCC[C@@H]1NC(=O)C[C@H](CO)NC(=O)[C@H]1CCC[C@@H]1NC(=O)[C@H]1CCC[C@@H]1N` [H12 SY], the Kd is reported as 351 µM.
In the case of `CC(C)C[C@@H](CC(=O)N[C@H]1CCC[C@@H]1C(=O)N[C@H]1CCC[C@@H]1C(N)=O)NC(=O)[C@H]1CCC[C@@H]1NC(=O)[C@H]1CCC[C@@H]1NC(=O)C[C@@H](NC(=O)[C@H]1CCC[C@@H]1NC(=O)[C@H]1CCC[C@@H]1N)[C@@H](C)O` [H12 TL], the Kd is reported as 110 µM.
In the case of `NC(=O)CC[C@@H](CC(=O)N[C@H]1CCC[C@@H]1C(=O)N[C@H]1CCC[C@@H]1C(=O)N[C@@H](CC(=O)O)CC(=O)N[C@H]1CCC[C@@H]1C(=O)N[C@H]1CCC[C@@H]1C(N)=O)NC(=O)[C@H]1CCC[C@@H]1NC(=O)[C@H]1CCC[C@@H]1N` [H12 QD], the Kd is reported as 433 µM.
`NC(=O)CC[C@@H](CC(=O)N[C@H]1CCC[C@@H]1C(=O)N[C@H]1CCC[C@@H]1C(=O)N[C@@H](CCC(=O)O)CC(=O)N[C@H]1CCC[C@@H]1C(=O)N[C@H]1CCC[C@@H]1C(N)=O)NC(=O)[C@H]1CCC[C@@H]1NC(=O)[C@H]1CCC[C@@H]1N` [H12 QE] showed a Kd of 474 µM.
For `CC(C)[C@@H](CC(=O)N[C@H]1CCC[C@@H]1C(=O)N[C@H]1CCC[C@@H]1C(N)=O)NC(=O)[C@H]1CCC[C@@H]1NC(=O)[C@H]1CCC[C@@H]1NC(=O)C[C@H](CO)NC(=O)[C@H]1CCC[C@@H]1NC(=O)[C@H]1CCC[C@@H]1N` [H12 SV], the Kd was 299 µM.
Work on `NC(=O)[C@H]1CCC[C@@H]1NC(=O)[C@H]1CCC[C@@H]1NC(=O)C[C@H](CC(=O)O)NC(=O)[C@H]1CCC[C@@H]1NC(=O)[C@H]1CCC[C@@H]1NC(=O)C[C@H](CO)NC(=O)[C@H]1CCC[C@@H]1NC(=O)[C@H]1CCC[C@@H]1N` [H12 SD] yielded a Kd of 441 µM.
`C[C@@H](CC(=O)N[C@H]1CCC[C@@H]1C(=O)N[C@H]1CCC[C@@H]1C(N)=O)NC(=O)[C@H]1CCC[C@@H]1NC(=O)[C@H]1CCC[C@@H]1NC(=O)C[C@H](CO)NC(=O)[C@H]1CCC[C@@H]1NC(=O)[C@H]1CCC[C@@H]1N` [H12 SA] showed a Kd of 482 µM.
With `NC(=O)C[C@@H](CC(=O)N[C@H]1CCC[C@@H]1C(=O)N[C@H]1CCC[C@@H]1C(N)=O)NC(=O)[C@H]1CCC[C@@H]1NC(=O)[C@H]1CCC[C@@H]1NC(=O)C[C@H](CO)NC(=O)[C@H]1CCC[C@@H]1NC(=O)[C@H]1CCC[C@@H]1N` [H12 SN] the Kd was 493 µM.
In the case of `C[C@@H](O)[C@@H](CC(=O)N[C@H]1CCC[C@@H]1C(=O)N[C@H]1CCC[C@@H]1C(N)=O)NC(=O)[C@H]1CCC[C@@H]1NC(=O)[C@H]1CCC[C@@H]1NC(=O)C[C@H](CCC(N)=O)NC(=O)[C@H]1CCC[C@@H]1NC(=O)[C@H]1CCC[C@@H]1N` [H12 QT], the Kd is reported as 447 µM.
`NC(=O)CC[C@@H](CC(=O)N[C@H]1CCC[C@@H]1C(=O)N[C@H]1CCC[C@@H]1C(=O)N[C@H](CC(=O)N[C@H]1CCC[C@@H]1C(=O)N[C@H]1CCC[C@@H]1C(N)=O)Cc1ccc(O)cc1)NC(=O)[C@H]1CCC[C@@H]1NC(=O)[C@H]1CCC[C@@H]1N` [H12 QY] was tested, and the Kd was 403 µM.
`C[C@@H](CC(=O)N[C@H]1CCC[C@@H]1C(=O)N[C@H]1CCC[C@@H]1C(N)=O)NC(=O)[C@H]1CCC[C@@H]1NC(=O)[C@H]1CCC[C@@H]1NC(=O)C[C@H](CC(N)=O)NC(=O)[C@H]1CCC[C@@H]1NC(=O)[C@H]1CCC[C@@H]1N` [H12 NA] showed a Kd of 447 µM.
`CC(C)[C@@H](CC(=O)N[C@H]1CCC[C@@H]1C(=O)N[C@H]1CCC[C@@H]1C(N)=O)NC(=O)[C@H]1CCC[C@@H]1NC(=O)[C@H]1CCC[C@@H]1NC(=O)C[C@H](CC(N)=O)NC(=O)[C@H]1CCC[C@@H]1NC(=O)[C@H]1CCC[C@@H]1N` [H12 NV] was tested, and the Kd was 460 µM.
For `C[C@@H](CC(=O)N[C@H]1CCC[C@@H]1C(=O)N[C@H]1CCC[C@@H]1C(N)=O)NC(=O)[C@H]1CCC[C@@H]1NC(=O)[C@H]1CCC[C@@H]1NC(=O)C[C@@H](NC(=O)[C@H]1CCC[C@@H]1NC(=O)[C@H]1CCC[C@@H]1N)[C@@H](C)O` [H12 TA], the Kd was 392 µM.
`CC[C@H](C)[C@@H](CC(=O)N[C@H]1CCC[C@@H]1C(=O)N[C@H]1CCC[C@@H]1C(N)=O)NC(=O)[C@H]1CCC[C@@H]1NC(=O)[C@H]1CCC[C@@H]1NC(=O)C[C@H](CCC(N)=O)NC(=O)[C@H]1CCC[C@@H]1NC(=O)[C@H]1CCC[C@@H]1N` [H12 QI] was tested, and the Kd was 263 µM.
For `CC[C@H](C)[C@@H](CC(=O)N[C@H]1CCC[C@@H]1C(=O)N[C@H]1CCC[C@@H]1C(N)=O)NC(=O)[C@H]1CCC[C@@H]1NC(=O)[C@H]1CCC[C@@H]1NC(=O)C[C@@H](NC(=O)[C@H]1CCC[C@@H]1NC(=O)[C@H]1CCC[C@@H]1N)[C@@H](C)O` [H12 TI], the Kd was 110 µM.
With `C[C@@H](O)[C@@H](CC(=O)N[C@H]1CCC[C@@H]1C(=O)N[C@H]1CCC[C@@H]1C(=O)N[C@@H](CCC(N)=O)CC(=O)N[C@H]1CCC[C@@H]1C(=O)N[C@H]1CCC[C@@H]1C(N)=O)NC(=O)[C@H]1CCC[C@@H]1NC(=O)[C@H]1CCC[C@@H]1N` [H12 TQ] the Kd was 447 µM.
Work on `CC(C)[C@@H](CC(=O)N[C@H]1CCC[C@@H]1C(=O)N[C@H]1CCC[C@@H]1C(N)=O)NC(=O)[C@H]1CCC[C@@H]1NC(=O)[C@H]1CCC[C@@H]1NC(=O)C[C@@H](NC(=O)[C@H]1CCC[C@@H]1NC(=O)[C@H]1CCC[C@@H]1N)[C@@H](C)O` [H12 TV] yielded a Kd of 208 µM.
Work on `CC(C)C[C@@H](CC(=O)N[C@H]1CCC[C@@H]1C(=O)N[C@H]1CCC[C@@H]1C(N)=O)NC(=O)[C@H]1CCC[C@@H]1NC(=O)[C@H]1CCC[C@@H]1NC(=O)C[C@H](CCC(N)=O)NC(=O)[C@H]1CCC[C@@H]1NC(=O)[C@H]1CCC[C@@H]1N` [H12 QL] yielded a Kd of 263 µM.
In the case of `CSCC[C@@H](CC(=O)N[C@H]1CCC[C@@H]1C(=O)N[C@H]1CCC[C@@H]1C(N)=O)NC(=O)[C@H]1CCC[C@@H]1NC(=O)[C@H]1CCC[C@@H]1NC(=O)C[C@@H](NC(=O)[C@H]1CCC[C@@H]1NC(=O)[C@H]1CCC[C@@H]1N)[C@@H](C)O` [H12 TM], the Kd is reported as 200 µM.
`NC(=O)C[C@@H](CC(=O)N[C@H]1CCC[C@@H]1C(=O)N[C@H]1CCC[C@@H]1C(=O)N[C@@H](CC(=O)O)CC(=O)N[C@H]1CCC[C@@H]1C(=O)N[C@H]1CCC[C@@H]1C(N)=O)NC(=O)[C@H]1CCC[C@@H]1NC(=O)[C@H]1CCC[C@@H]1N` [H12 ND] gave a Kd of 400 µM.
`CC(C)C[C@@H](CC(=O)N[C@H]1CCC[C@@H]1C(=O)N[C@H]1CCC[C@@H]1C(N)=O)NC(=O)[C@H]1CCC[C@@H]1NC(=O)[C@H]1CCC[C@@H]1NC(=O)C[C@H](CC(N)=O)NC(=O)[C@H]1CCC[C@@H]1NC(=O)[C@H]1CCC[C@@H]1N` [H12 NL] showed a Kd of 214 µM.
